For assay [1], the system named is skin of the upper lip (philtrum). Nature of the assay: Cooling sensation bioassay, ointment applied to skin above the upper lip (philtrum) of test subjects. Format: in vivo, human. Particulars: for qualitative aspects of sensation (coolness and not cold, duration at least three hours): topical, philtrum method; for duration of action: applied to the skin of test subjects. The text has this: A reliable place for topical application is on the upper lip, above the vermillion border of the lips, on the philtrum, lateral to the philtrum until the nasolabial folds, and on the lower nostrils. This part of the face is known to be densely innervated with cold receptors, second only to the surface of eyeball. Tingling, cool and cold sensations may be experienced and rated for intensity. This test is quite accurate for predicting the cooling activity of candidate N-arylshydroxyalkylidene-cCarboxamide drugs, but most importantly, it also measures the duration of drug action on the sensory receptors. The duration of action is not measured in a receptor assay and is difficult to quantify on the tongue because of the dynamic fluid conditions in the oral cavity and the presence of taste factors that affect thermosensation.
For bioassay of […] on the skin, CPS-195 was stirred and dissolved in warm liquid Aquaphor® ointment to yield ointment concentrations of 0.25, 0.5, 1, and 2% wt/vol. After cooling, 50 to 80 mg of the solid ointment was placed on the tip of a plastic stick and applied to the skin above the upper lip, on the philtrum, and lateral to the philtrum up to the nasolabial folds, of test subjects and the onset and duration of cooling sensations recorded. Each of the compounds produce cooling on the skin of the upper lip with duration of action of more than 1 hour.
The intensity of the subjective skin sensation is rated as 0, 1, 2 or 3 with 0 as no change, 1 as slight coolness, cold, or tingling, 2 as clear cut signal of coolness, cold, or tingling, and 3 as robust cooling or cold. The interval for recording sensations is at 5 minute intervals, until two successive zeroes are obtained. The results are averaged values of 4 to 6 separate trials in the same individual. The data were plotted using SigmaPlot (Systat Software, Point Richmond Calif.) and a smoothing function with a negative exponential was used for analysis and statistical fit of the results.
The onset of drug action was taken as the time to reach 2 units of coolness intensity, and offset of drug action was the time when coolness intensity drops below 1.5, after previously surpassing 2 units. The duration of cooling action was defined as the offset time minus the onset time, which in this case averaged 2 minutes. The quality of the sensation was also noted, such as refreshing coolness, cold, or if the sensation was accompanied by irritation (stinging or burning). The quality of the sensation was not rated for intensity.

The target in assay [2] is T1, TRP-M8 receptor (Homo sapiens, UniProt Q7Z2W7).
T1 construct: expressed in transfected cells
T1 sequence (Q7Z2W7 whole entry): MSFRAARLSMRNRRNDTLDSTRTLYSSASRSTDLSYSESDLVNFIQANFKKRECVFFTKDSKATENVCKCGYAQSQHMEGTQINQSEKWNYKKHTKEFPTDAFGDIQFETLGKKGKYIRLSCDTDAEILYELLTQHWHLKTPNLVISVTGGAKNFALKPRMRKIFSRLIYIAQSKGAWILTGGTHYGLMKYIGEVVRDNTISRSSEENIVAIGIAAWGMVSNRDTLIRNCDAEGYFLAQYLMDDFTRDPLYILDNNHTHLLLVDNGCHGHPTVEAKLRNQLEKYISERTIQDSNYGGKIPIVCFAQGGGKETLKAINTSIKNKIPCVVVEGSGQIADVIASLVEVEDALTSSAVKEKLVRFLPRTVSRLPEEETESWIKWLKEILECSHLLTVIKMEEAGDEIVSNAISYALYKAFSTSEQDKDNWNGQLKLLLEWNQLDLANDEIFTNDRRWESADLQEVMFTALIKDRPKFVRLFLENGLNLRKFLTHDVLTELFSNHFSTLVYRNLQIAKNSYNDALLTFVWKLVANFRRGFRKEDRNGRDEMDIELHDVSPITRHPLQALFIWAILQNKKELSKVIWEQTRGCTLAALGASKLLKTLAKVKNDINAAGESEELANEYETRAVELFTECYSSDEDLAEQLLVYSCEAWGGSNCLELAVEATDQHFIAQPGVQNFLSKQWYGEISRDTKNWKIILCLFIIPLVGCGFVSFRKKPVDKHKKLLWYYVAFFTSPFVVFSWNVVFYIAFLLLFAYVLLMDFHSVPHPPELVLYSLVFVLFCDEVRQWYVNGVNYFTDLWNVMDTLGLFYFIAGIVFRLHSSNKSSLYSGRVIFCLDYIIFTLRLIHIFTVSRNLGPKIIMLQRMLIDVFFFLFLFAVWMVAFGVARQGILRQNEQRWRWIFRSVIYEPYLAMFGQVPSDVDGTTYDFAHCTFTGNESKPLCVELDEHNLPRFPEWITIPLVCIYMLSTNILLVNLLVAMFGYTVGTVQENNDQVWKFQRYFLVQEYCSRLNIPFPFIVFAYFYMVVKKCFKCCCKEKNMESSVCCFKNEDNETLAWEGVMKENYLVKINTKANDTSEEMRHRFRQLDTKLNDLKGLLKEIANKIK
Nature of the assay: TRP-M8 receptor assay. Format: cell-based. The text has this: Pain was defined by Sir Charles Sherrington as “the psychic adjunct of an imperative protective reflex”. Psychic events such as cooling, irritation, itch, and pain cannot be expressed by animals (animals cannot say “ouch” or that “it itches”) so the sensory effects of chemicals must be indirectly inferred. Receptor assays, based on cells transfected with the gene for TRP-M8 or TRP-A1, may be used as a model of sensory processes. […] But, as noted below, these assays give no information on how long and for what quality of sensations is occurring on human subjects. The best information on the pharmacological properties of these chemicals must therefore be derived from human experiment.
The sensations are more cold than cool, and have the sting and harshness of high concentrations of menthol. […] CPS-112 was therefore a disappointment in spite of its high potency on the receptor assay.

The test system of assay [3] is oral cavity. Nature of the assay: Cooling sensation after placement on the dorsal surface of the tongue. Format: in vivo, human. As for the experimental part: The onset of cooling was 3 to 5 minutes, but once the effect was established, the entire oral cavity and pharyngeal surfaces (oro-, laryngo- and naso-pharynx) felt cool.
CPS-195 was formulated as a 3% wt/wt tablet in Ludipress®, a rapidly disintegrating direct compression excipient made by BASF Corp. The tablet size was 60 mg so each unit contained 1.8 mg of CPS-195. […] For example, applied onto the mucous membranes of the oral cavity it can soothe the discomforts of pharyngitis/laryngitis, oral mucositis, oral ulcers, and idiopathic facial pain. In the pharynx and upper airways, CPS-195 may be used to reduce or to treat cough, asthma, and chronic obstructive pulmonary disease. On the skin, CPS-195 can be used to treat the discomfort of severe acne, eczema, diabetic ulcers, and the like.

[4] abbreviates: 2 mg on the dorsal surface of the tongue.

In the case of `CC(C)[C@@H]1CC[C@@H](C)C[C@H]1C(=O)Nc1ccc(S(=O)(=O)Nc2ncccn2)cc1` [CPS-125], in assay [1], the “qualitative aspects of sensation (coolness and not cold, duration at least three hours)” value is “met”.

As for `CC1CCC(C(C)C)C(O)C1` (single isomer, unassigned; (-)) [(−)-menthol, reference compound], the duration of action result in assay [1] is recorded as “less than one”.

Regarding `COc1ccc(NC(=O)[C@@H]2C[C@H](C)CC[C@H]2C(C)C)cc1` [WS-12, reference compound], in assay [1] (2% preparation), the “time at which action is dissipated” value is listed as “one” and the “time at which duration of action peaks” value came to 30 min. Also, the “sensation elicited on the philtrum and its environs” value in assay [1] (applied at 1 to 2%) is given as “strong cold sensations”. Moreover, the “qualitative aspects of sensation (coolness and not cold, duration at least three hours)” value in assay [1] is listed as “sensations of cold, but of brief duration”. Besides, the “active concentrations on the TRP-M8 receptor assay” value in assay [2] is recorded as “sub-micromolar”.

Take `CCOC(=O)CNC(=O)[C@@H]1C[C@H](C)CC[C@H]1C(C)C` [WS-5, reference compound]: the duration of action result in assay [1] is given as “less than one”.

On to `CC(C)[C@@H]1CC[C@@H](C)C[C@H]1C(=O)N(C)CC(O)c1cccc(O)c1` (stereo in doubt) [CPS-195, 2-isopropyl-5-methyl-cyclohexanecarboxylic acid (2′-hydroxy-2′-[3″-hydroxy-phenyl]-ethyl)-N-methyl-amide], for which the “duration of action (coolness and cold on skin of the upper lip)” value in assay [1] (0.25% wt/vol in Aquaphor ointment) is 1.2 h; in assay [1] (0.5% wt/vol in Aquaphor ointment) it was 1.8 h; in assay [1] (1% wt/vol in Aquaphor ointment), 2.4 h; in assay [1] (2% wt/vol in Aquaphor ointment), 5.2 h. Besides, the “potency compared to CPS-179, CPS-190 and CPS-192” value in assay [1] (skin of the upper lip) is “most potent”. Moreover, in assay [3] (setting [4]), the “duration of cooling sensation within the oral cavity” value was “over 4 hours”. Moreover, the “quality of cool/cold sensations” value in assay [3] (setting [4]) was “pleasant and not aversive”. The compound further yielded a duration of action in assay [3] (single dose of 2 mg applied to the surface of the tongue or on to the philtrum) of approximately 4 h.

Values taken from patent US20100041757A1, “N-ARYL-HYDROXYALKYLIDENE-CARBOXAMIDE COMPOUNDS AND THEIR USE” (priority 2006, published 2010).
